Experimental data as given in PubChem BioAssay (NCI).
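Where inhibition never reached the appropriate level, the endpoint shown equals the highest concentration tested. Otherwise, values were interpolated linearly from a five-concentration, 48-hour dose response in 96-well plates. The concentration for full growth arrest is given as TGI.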

Experiments:
Assay in all cases: NCI tumour cell line growth inhibition, 48 h
DMS 114 small cell lung = test system: DMS 114 small cell lung
P388/ADR leukemia = test system: P388/ADR leukemia
SN12K1 renal = test system: SN12K1 renal
P388 leukemia = test system: P388 leukemia

For `Cc1cccc2[s+]snc12`, the TGI (DMS 114 small cell lung) was greater than 100 µM.

`CC12CCC(C(=O)N3CC=CCC3)(OC1=O)C2(C)C` (stereo not given) was tested, and the TGI (P388/ADR leukemia) was greater than 100 µM, the TGI (SN12K1 renal) was greater than 100 µM and the TGI (P388 leukemia) was greater than 100 µM. For the same compound, the TGI (DMS 114 small cell lung) was greater than 100 µM.
